Results on 29 compounds are retold here after patent US20250179061A1 (SIRONAX LTD., priority 2022, published 2025).

The test has as its system HT-29 cells. The experiment in a line: HT-29 necroptosis cell viability assay (TNF-α/SMAC mimetic/zVAD-FMK, CellTiter-Glo). The format is cell-based. The conditions noted are these: Homo sapiens, read-out: Activity. Summed up:
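HT-29 cells (~5,000/well, overnight) in FBS-free McCoy's 5A with TNF-α 10 ng/ml, SMAC mimetic 6 μM and zVAD-FMK 10 μM plus 10-point 1:3 compound titration, 20 h at 37°C. ATP measured by CellTiter-Glo luminescence; IC50 as geometric mean of duplicates.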

Setting [1] is: HT-29, HT-29 necroptosis cell viability assay, class symbols for IC50.
[2] abbreviates: HT-29, HT-29 necroptosis cell viability, IC50 class symbols.

Read-outs that look alike come from different tables or passages of the source.

For `COC(=O)c1cc(C)n(Cc2ccc(-n3ncn(Cc4c(F)cccc4F)c3=O)cc2F)c1C` [Example 205, methyl 1-(4-(4-(2,6-difluorobenzyl)-5-oxo-4,5-dihydro-1H-1,2,4-triazol-1-yl)-2-fluorobenzyl)-2,5-dimethyl-1H-pyrrole-3-carboxylate], the IC50 under setting [1] was below 100 nM.

Take `Cc1ccc(C#N)n1Cc1ccc(-n2ncn(Cc3c(F)cccc3F)c2=O)cc1` [Example 206, 1-(4-(4-(2,6-difluorobenzyl)-5-oxo-4,5-dihydro-1H-1,2,4-triazol-1-yl)benzyl)-5-methyl-1H-pyrrole-2-carbonitrile]: the IC50 under setting [1] was 100 to 1000 nM.

On to `Cc1ccc(C)n1Cc1ccc(-n2ncn(Cc3c(F)cccc3F)c2=O)cc1` [Example 207, 4-(2,6-difluorobenzyl)-2-(4-((2,5-dimethyl-1H-pyrrol-1-yl)methyl)phenyl)-2,4-dihydro-3H-1,2,4-triazol-3-one], for which the IC50 under setting [1] is below 100 nM.

Consider `CCOC(=O)c1c(C)cn(Cc2ccc(-n3ncn(Cc4c(F)cccc4F)c3=O)cc2F)c1C` [Example 208, 1-(4-(4-(2,6-difluorobenzyl)-5-oxo-4,5-dihydro-1H-1,2,4-triazol-1-yl)-2-fluorobenzyl)-2,4-dimethyl-1H-pyrrole-3-carboxylate], for which, under setting [1], the IC50 was below 100 nM.

As to `N#Cc1ccn(Cc2ccc(-n3ncn(Cc4c(F)cccc4F)c3=O)cc2)n1` [Example 209, 1-(4-(4-(2,6-difluorobenzyl)-5-oxo-4,5-dihydro-1H-1,2,4-triazol-1-yl)benzyl)-1H-pyrazole-3-carbonitrile], under setting [1], the IC50 is below 100 nM.

On to `COC(=O)c1cn(Cc2ccc(-n3ncn(Cc4c(F)cccc4F)c3=O)cc2F)c(C)n1` [Example 210, methyl 1-(4-(4-(2,6-difluorobenzyl)-5-oxo-4,5-dihydro-1H-1,2,4-triazol-1-yl)-2-fluorobenzyl)-2-methyl-1H-imidazole-4-carboxylate], for which the IC50 under setting [1] was in the range of 100 to 1000 nM.

Turning to `O=c1c(Br)cccn1Cc1ccc(-n2ncn(Cc3c(F)cccc3F)c2=O)cc1` [Example 211, 3-bromo-1-(4-(4-(2,6-difluorobenzyl)-5-oxo-4,5-dihydro-1H-1,2,4-triazol-1-yl)benzyl)pyridin-2(1H)-one], the IC50 under setting [1] fell in the range of 100 to 1000 nM.

For the compound `Cc1nc(CN2CCCC2)sc1Oc1ccc(-n2ncn(Cc3c(F)cccc3F)c2=O)cc1F` [Example 212, 4-(2,6-difluorobenzyl)-2-(3-fluoro-4-((4-methyl-2-(pyrrolidin-1-ylmethyl)thiazol-5-yl)oxy)phenyl)-2,4-dihydro-3H-1,2,4-triazol-3-one], under setting [1], the IC50 is below 100 nM.

Consider `Cc1cn(Cc2ccc(-n3nc4n(c3=O)C(c3ccccc3)CC4)cc2F)c(C)n1` (centres unmarked) [Example 213, 2-(4-((2,4-dimethyl-1H-imidazol-1-yl)methyl)-3-fluorophenyl)-5-phenyl-2,5,6,7-tetrahydro-3H-pyrrolo[2,1-c][1,2,4]triazol-3-one], for which the IC50 under setting [1] is below 100 nM.

In the case of `Cc1cn(C)c(=O)n1Cc1ccc(-n2ncn(Cc3c(F)cccc3F)c2=O)cc1` [Example 214, 4-(2,6-difluorobenzyl)-2-(4-((3,5-dimethyl-2-oxo-2,3-dihydro-1H-imidazol-1-yl)methyl)phenyl)-2,4-dihydro-3H-1,2,4-triazol-3-one], the IC50 under setting [1] was 1000 to 10000 nM.

Consider `CCOC(=O)c1nc(C)n(Cc2ccc(-n3ncn(Cc4c(F)cccc4F)c3=O)cc2F)c1C` [Example 215, ethyl 1-(4-(4-(2,6-difluorobenzyl)-5-oxo-4,5-dihydro-1H-1,2,4-triazol-1-yl)-2-fluorobenzyl)-2,5-dimethyl-1H-imidazole-4-carboxylate], for which, under setting [1], the IC50 was below 100 nM.

For the compound `Cc1cc(C(=O)O)nn1Cc1ccc(-n2ncn(Cc3c(F)cccc3F)c2=O)cc1F` [Example 216, 1-(4-(4-(2,6-difluorobenzyl)-5-oxo-4,5-dihydro-1H-1,2,4-triazol-1-yl)-2-fluorobenzyl)-5-methyl-1H-pyrazole-3-carboxylic acid], the IC50 under setting [1] is 1000 to 10000 nM.

On to `Cc1nc(C(N)=O)c(C)n1Cc1ccc(-n2ncn(Cc3c(F)cccc3F)c2=O)cc1F` [Example 217, 1-(4-(4-(2,6-difluorobenzyl)-5-oxo-4,5-dihydro-1H-1,2,4-triazol-1-yl)-2-fluorobenzyl)-2,5-dimethyl-1H-imidazole-4-carboxamide], for which the IC50 under setting [1] lay within 100 to 1000 nM.

Take `Cc1nc(C)n(Cc2ccc(-n3ncn(Cc4c(F)cccc4F)c3=O)cc2F)c1C(N)=O` [Example 218, 1-(4-(4-(2,6-difluorobenzyl)-5-oxo-4,5-dihydro-1H-1,2,4-triazol-1-yl)-2-fluorobenzyl)-2,4-dimethyl-1H-imidazole-5-carboxamide]: under setting [1], the IC50 is 100 to 1000 nM.

As for `Cc1cc(C(N)=O)c(C)n1Cc1ccc(-n2ncn(Cc3c(F)cccc3F)c2=O)cc1F` [Example 219, 1-(4-(4-(2,6-difluorobenzyl)-5-oxo-4,5-dihydro-1H-1,2,4-triazol-1-yl)-2-fluorobenzyl)-2,5-dimethyl-1H-pyrrole-3-carboxamide], under setting [1], the IC50 was below 100 nM.

Regarding `Cc1nc(CO)cn1Cc1ccc(-n2nc3n(c2=O)C(c2ccccc2)CC3)cc1F` (centres unmarked) [Example 220, 2-(3-fluoro-4-((4-(hydroxymethyl)-2-methyl-1H-imidazol-1-yl)methyl)phenyl)-5-phenyl-2,5,6,7-tetrahydro-3H-pyrrolo[2,1-c][1,2,4]triazol-3-one], under setting [1], the IC50 lay in the range of 100 to 1000 nM.

For `Cc1cc(CO)n(Cc2ccc(-n3nc4n(c3=O)C(c3ccccc3)CC4)cc2F)n1` (centres unmarked) [Example 221, 2-(3-fluoro-4-((5-(hydroxymethyl)-3-methyl-1H-pyrazol-1-yl)methyl)phenyl)-5-phenyl-2,5,6,7-tetrahydro-3H-pyrrolo[2,1-c][1,2,4]triazol-3-one], under setting [1], the IC50 was in the range of 1000 to 10000 nM.

Turning to `Cc1cn(Cc2ccc(-n3nc4n(c3=O)C(c3ccccc3)CC4)cc2F)c(C)c1C(N)=O` (centres unmarked) [Example 222, 1-(2-fluoro-4-(3-oxo-5-phenyl-6,7-dihydro-3H-pyrrolo[2,1-c][1,2,4]triazol-2(5H)-yl)benzyl)-2,4-dimethyl-1H-pyrrole-3-carboxamide], under setting [1], the IC50 was below 100 nM.

Take `Nc1cc(Oc2ccc(-n3ncn(Cc4c(F)cccc4F)c3=O)cc2F)c(F)cn1` [Example 223, 2-(4-((2-amino-5-fluoropyridin-4-yl)oxy)-3-fluorophenyl)-4-(2,6-difluorobenzyl)-2,4-dihydro-3H-1,2,4-triazol-3-one]: the IC50 under setting [2] fell in the range of 100 to 1000 nM.

For `CC1(C#N)CN(c2nccc(Oc3ccc(-n4ncn(Cc5c(F)cccc5F)c4=O)cc3Cl)c2F)C1` [Example 224, 1-(4-(2-chloro-4-(4-(2,6-difluorobenzyl)-5-oxo-4,5-dihydro-1H-1,2,4-triazol-1-yl)phenoxy)-3-fluoropyridin-2-yl)-3-methylazetidine-3-carbonitrile], under setting [2], the IC50 was below 100 nM.

For the compound `Cc1cnc(N2CC(C)(C#N)C2)nc1Oc1ccc(-n2ncn(Cc3c(F)cccc3F)c2=O)cc1F` [Example 225, 1-[4-(4-{4-[(2,6-difluorophenyl)methyl]-5-oxo-1,2,4-triazol-1-yl}-2-fluorophenoxy)-5-methylpyrimidin-2-yl]-3-methylazetidine-3-carbonitrile], the IC50 under setting [2] lay within 100 to 1000 nM.

With `CC1(C#N)CN(c2nccc(Oc3ccc(-n4ncn(Cc5c(F)cccc5F)c4=O)cc3F)c2F)C1` [Example 226, 1-(4-(4-(4-(2,6-difluorobenzyl)-5-oxo-4,5-dihydro-1H-1,2,4-triazol-1-yl)-2-fluorophenoxy)-3-fluoropyridin-2-yl)-3-methylazetidine-3-carbonitrile], the IC50 under setting [2] is below 100 nM.

Consider `Cc1c(Oc2ccc(-n3ncn(Cc4c(F)cccc4F)c3=O)cc2F)ccnc1N1CC(C)(C#N)C1` [Example 227, 1-(4-(4-(4-(2,6-difluorobenzyl)-5-oxo-4,5-dihydro-1H-1,2,4-triazol-1-yl)-2-fluorophenoxy)-3-methylpyridin-2-yl)-3-methylazetidine-3-carbonitrile], for which the IC50 under setting [2] is below 100 nM.

Consider `Cc1cnc(N2CCC(C)(C#N)C2)cc1Oc1ccc(-n2ncn(Cc3c(F)cccc3F)c2=O)cc1F` (centres unmarked) [Example 228, 1-(4-(4-(4-(2,6-difluorobenzyl)-5-oxo-4,5-dihydro-1H-1,2,4-triazol-1-yl)-2-fluorophenoxy)-5-methylpyridin-2-yl)-3-methylpyrrolidine-3-carbonitrile], for which the IC50 under setting [2] is below 100 nM.

For `COC1(C#N)CN(c2cc(Oc3ccc(-n4ncn(Cc5c(F)cccc5F)c4=O)cc3F)c(F)cn2)C1` [Example 230, 1-(4-(4-(4-(2,6-difluorobenzyl)-5-oxo-4,5-dihydro-1H-1,2,4-triazol-1-yl)-2-fluorophenoxy)-5-fluoropyridin-2-yl)-3-methoxyazetidine-3-carbonitrile], the IC50 under setting [2] was below 100 nM.

Take `COC1(C#N)CN(c2cc(Oc3ccc(-n4ncn(Cc5c(F)cccc5F)c4=O)cc3F)c(Cl)cn2)C1` [Example 231, 1-(5-chloro-4-(4-(4-(2,6-difluorobenzyl)-5-oxo-4,5-dihydro-1H-1,2,4-triazol-1-yl)-2-fluorophenoxy)pyridin-2-yl)-3-methoxyazetidine-3-carbonitrile]: under setting [2], the IC50 was below 100 nM.

As for `C[C@H]1[C@H](C#N)CN1c1cc(Oc2ccc(-n3ncn(Cc4c(F)cccc4F)c3=O)cc2F)c(F)cn1` [Example 232, (2S,3R)-1-(4-(4-(4-(2,6-difluorobenzyl)-5-oxo-4,5-dihydro-1H-1,2,4-triazol-1-yl)-2-fluorophenoxy)-5-fluoropyridin-2-yl)-2-methylazetidine-3-carbonitrile], the IC50 under setting [2] was below 100 nM.

With `C[C@H]1[C@H](C#N)CN1c1cc(Oc2ccc(-n3ncn(Cc4c(F)cccc4F)c3=O)cc2F)c(Cl)cn1` [Example 233, (2S,3R)-1-(5-chloro-4-(4-(4-(2,6-difluorobenzyl)-5-oxo-4,5-dihydro-1H-1,2,4-triazol-1-yl)-2-fluorophenoxy)pyridin-2-yl)-2-methylazetidine-3-carbonitrile], the IC50 under setting [2] was below 100 nM.

Take `CCOC1CN(c2ncnc(Oc3ccc(-n4ncn(Cc5c(F)cccc5F)c4=O)cc3)c2F)C1` [Example 234, 4-(2,6-difluorobenzyl)-2-(4-((6-(3-ethoxyazetidin-1-yl)-5-fluoropyrimidin-4-yl)oxy)phenyl)-2,4-dihydro-3H-1,2,4-triazol-3-one]: the IC50 under setting [2] was 100 to 1000 nM.
